{"source": "patent US11926826B2", "about": "“Twist signaling inhibitor compositions and methods of using the same” (City of Hope, priority 2016, dated 2024)", "key": {"TWIST1 [1]": {"tested_on": "TWIST1", "assay": "TWIST1 knockdown after Lipofectamine 2000 transfection in SUM 1315", "type": "cell-based, human", "experimental": "Cell Culture, Transfection, and Stable Cell Line Production. SUM 1315 breast cancer cells were obtained from ATCC (Manassas, VA). Cells were maintained at 37° C., 5% CO2, and 90% humidity in a tissue culture incubator. Media for SUM 1315 cells consisted of a 50-50 mixture of DMEM and F12 media, supplemented with 5 μg/ml insulin, 10 ng/ml EGF, 5% fetal bovine serum, and 1% penicillin/streptomycin. Cells were passaged using 0.25% trypsin (Genesee Scientific, San Diego, CA) every 2-3 days as they reached confluency. […]\nQuantitative PCR. […] RNA quantity and quality was measured and analyzed (with 260/280 nm and 260/230 nm spectra measurements) using a NanoDrop ND-1000 (Thermo Fisher Scientific, Waltham, MA). […] Quantitative RT-PCR was performed in quadruplicate using Maxima SYBR Green Master Mix (Thermo Fisher Scientific, Waltham, MA) in 25 μl reactions. […] Data were analyzed using Bio-Rad iQ5 software using the 2^−ΔΔ^Ct method and normalized to Actin. […]\nWestern Blot. […] Cells were pelleted, lysed in RIPA buffer, and protein concentration was determined using the BCA Assay (Thermo Fisher Scientific, Waltham, MA). […]"}, "TWIST1 [2]": {"tested_on": "TWIST1", "assay": "TWIST1 knockdown after Lipofectamine 2000 transfection of siRNA in MDA-MB-435S cells (western blot)", "type": "cell-based, human", "conditions": "unmodified vs passenger-strand modified si419", "experimental": "Transient transfection of MDA-MB-435S GFP+ffluc was carried out using LIPOFECTAMINE® 2000 (Thermo Fisher Scientific, Waltham, MA) according to the manufacturer's instructions. LIPOFECTAMINE® 2000 transfection was used to confirm the functionality of the siRNA (si419 and si494) prior to testing their efficacy with MSNs. Transfection of siRNA with MSNs was carried out by incubating the MSNs with the siRNA overnight at 4° C. while rotating the tube constantly. The mixture consisted of 7 parts MSN (diluted to 500 ng/ul in sterile PBS) to 1 part siRNA (diluted to 10 uM). The final concentration for of MSNs and siRNA applied to cells was 17.5 ng/ul and 50 nM, respectively.\nWestern Blot. Following siRNA treatment described above, cells were lifted from tissue culture wells with 0.25% trypsin, pelleted, and lysed in RIPA buffer. Protein concentration was determined using a BCA Assay (Thermo Fisher Scientific). A total of 30 μg of protein per lane was run on 4% stacking and 12% resolving polyacrylamide gels. Following gel electrophoresis, protein was transferred to Immobilon-P PVDF membrane (Millipore, Billerica, MA) using a Trans-Blot SD Semi-Dry Transfer Cell (Bio-Rad, Hercules, CA). Membranes were then blocked with 5% dry milk dissolved in 1×PBS with 0.1% Tween-20. Antibodies were diluted in blocking buffer (1:250 for anti-TWIST1 and 1:2,500 for anti-Actin). […]"}}, "data": [{"substance": "si419: anti-TWIST siRNA; passenger 5′-GGACAAGCUGAGCAAGAUU-3′ (SEQ ID No: 1), guide 5′-AAUCUUGCUCAGCUUGUCCUU-3′ (SEQ ID No: 2) (listed as RNA, chemistry not fully specified)", "values": [{"measurement": "TWIST1 knockdown (protein and mRNA)", "setting": "TWIST1 [1]", "value": "knockdown of TWIST1"}, {"measurement": "knockdown (efficiency, FIG. 6)", "setting": "TWIST1 [2]", "value": "approximately 80%"}]}]}
